From article PMC12030062, “From In Vitro Cytotoxicity to In Vivo Zebrafish Assays: A Study on 3,3-Dichloro β-, γ- and δ-Lactams and Their Biological Activity Profiles” (Pharmaceuticals, 2025)

Assays:
[1] = Hemolysis assay with human erythrocytes; format: cell-based; settings: human, washed human erythrocyte suspension, pH 7.4; 10 µg/mL; read-out: degree of hemolysis
Method: (§1) In this context, non-hemolytic compounds are essential, as they enhance the safety and efficacy of lactam-based drugs by reducing adverse effects while maintaining their antitumor activity. In accordance with EU regulations (ISO 10993-4), the assessment of the biological compatibility of new compounds that may come into contact with the blood necessitates in vitro hemocompatibility evaluations. In this study, the extent of hemolysis induced by the different compounds was assessed by incubating them with an erythrocyte suspension. The hemolytic response of compounds 1–10 was evaluated at two concentrations (10 and 80 µg/mL), the results of which are presented in Figure 3.
(§2) • In Vitro Assay Using Human Erythrocytes • - Acquisition and Extraction of the Erythrocytes Human blood samples were obtained from the Banc de Sang i Teixits de Barcelona (Spain) from the Catalan Department of Health. Blood was deposited in tubes with the anticoagulant EDTA-K3. Blood samples were centrifuged at 3000 rpm and 4 °C for 10 min (Megafuge 2.0 R. Heraeus Instruments, Hanau, Germany) to induce sedimentation. Plasma was extracted with a Pasteur pipette. Next, the residual pellet was washed with PBS at pH 7.4. This procedure was repeated three times to remove residual leukocytes and platelets and to concentrate the erythrocytes. Following the last wash, the erythrocyte suspension was diluted (1:1) in PBS at pH 7.4 to obtain a suitable erythrocyte suspension (cell density of 8 × 10^9 cell/mL). • - Hemolysis Assay The hemolysis assay determined the capability of different compounds to induce the hemolysis of the erythrocyte membrane. Stock solutions of each compound at 1 mg/mL in PBS at pH 7.4 were prepared. Different volumes (10–80 μL) were placed in polystyrene tubes, and an aliquot of 25 µL of the erythrocyte suspensions was added to each tube. The final volume was 1 mL. The tubes were incubated at room temperature under rotatory conditions. Then, the tubes were centrifuged at 10,000 rpm for 5 min. The supernatants’ absorbance at 540 nm (Shimadzu UV-160A, Shimadzu, Duisburg, Germany) was compared with that of the positive (erythrocytes hemolyzed with distilled water) and negative (erythrocyte suspension in PBS at pH 7.4) controls. The degree of hemolysis was determined using the following equation: Hemolysis (%) = 100 × (Abs − Abs0)/(Abs100 − Abs0) where Abs, Abs0, and Abs100 are the absorbance of the test samples, of the suspension treated with isotonic phosphate–buffered saline (PBS), and of the suspension of complete hemolysis treated with distilled water, respectively. • In Vitro Essay Using Cell Cultures The murine Swiss albino fibroblasts (3T3) and the squamous cell carcinoma (A431) cell lines were obtained from Celltec UB. Cells were grown in DMEM medium (4.5 g/L glucose) supplemented with 10% (v/v) FBS, 2 mM L-glutamine, 100 U/mL penicillin, and 100 µg/mL streptomycin at 37 °C with 5% CO2. Cells were routinely cultured in 75 cm^2 culture flasks and were trypsinized using trypsin–EDTA when the cells reached approximately 80% confluence. The trypan blue assay, which allows for the direct identification and enumeration of the live (unstained) and dead (blue) cells in the cell population, was used to evaluate the viability of the cells in the cell suspension obtained. • - Cell Viability Assays Cell lines of 3T3 (1 × 10^5 cells/mL) and A431 (5 × 10^4 cells/mL) were grown at defined densities in the 60 central wells of a 96-well plate. The cells were incubated for 24 h in 5% CO2 at 37 °C. Then, the spent medium was removed, and the cells were incubated for 24 h, with their corresponding compound solutions (1 mg/mL) previously diluted in a minimum amount of DMF (dimethylformamide) and then in DMEM medium supplemented with 5% FBS (100 µL) at the required concentration range (80 or 250 µg/mL). […]

human erythrocytes = assay: Hemolysis assay with human erythrocytes; format: cell-based; settings: from 10 to 80 µg/mL
Method: as §1, §2

CC(C)(C)N1C(=O)C(Cl)(Cl)C1c1ccccc1 (centres unmarked) [Compound 1]
hemolysis at 10 µg/mL [1]: 0.01%
change of hemolytic response as concentration increased (human erythrocytes): remained stable
